Columns and labels:
[1] = tested on: NF-Y binding at ICB1 of Topoisomerase IIα promoter; experiment: NF-Y gel shift assay (EMSA) at ICB1
[2] = tested on: 170 bp sequence of the human Topo-IIa promoter; experiment: DNase I footprinting on Topo-IIa promoter (ICB1, ICB2 sites); type: binding; settings: for Concentration at which DNA binding is observed, ICB1: ICB1 site; for Concentration at which DNA binding is observed, ICB2: ICB2 site
Experimental: In a similar manner to Example 4, the affinity and sequence selectivity of certain compounds of examples 1 and 2 was evaluated by standard DNA footprinting on a 170 bp sequence of the human Topo-IIa promoter, in accordance with the technique described in Martin, C., et al.
Selected results are shown in FIG. 9, wherein the concentrations of the lanes were 0, 1.6, 8, 40, 200, 1000, 5000 and 25000 nM in each case.
The footprinting results allowed the identification of compounds that could potentially disrupt transcription factor binding at the ICB1 and ICB2 sites. […] These compounds are detailed below in table 3, showing the concentrations (μM) at which the PBD-heterocycle conjugates bind at ICB1 and ICB2.

[3] = tested on: NF-Y binding at ICB2 of Topoisomerase IIα promoter; experiment: NF-Y gel shift assay (EMSA) at ICB2
calf thymus DNA (CT-DNA) = experiment: DNA thermal denaturation (melting) studies; type: binding; settings: CT-DNA 100 μM DNAp, compound 20 μM, 37 °C; for Induced ΔTm after incubation 0 hours: pH 7.00, 0 hours; for Induced ΔTm after incubation 4 hours: pH 7.00, 4 hours; for Induced ΔTm after incubation 18 hours: pH 7.00, 18 hours; for Induced ΔTm after incubation 72 hours: pH 7.00, 72 hours
Experimental: The PBD agents were subjected to DNA thermal melting (denaturation) studies (Gregson, S. J., et al., Journal of Medicinal Chemistry, 44(5), 737-748 (2001); Jones, G. B., et al., Anti-Cancer Drug Design, 5(3), 249-264 (1990); McConnaughie, A. W. and; Jenkins, T. C. Journal of Medicinal Chemistry, 38(18), 3488-3501 (1995)) using calf thymus DNA (CT-DNA, type-1, highly polymerized sodium salt; 42% G+C [Sigma]) at a fixed 100 μM (DNAp=50 μM bp) concentration, determined using an extinction coefficient of 6600 (M phosphate)^−1 cm^−1 at 260 nm (Manzini, G., et al., Nucleic Acids Research, 11(24), 8861-8876 (1983)). Solutions were prepared in pH 7.00±0.01 aqueous buffer containing 10 mM NaH2PO4/Na2HPO4 and 1 mM EDTA. Working solutions containing CT-DNA and the test compound (20 μM) were incubated at 37.0±0.1° C. for 0 to 18 hours using an external water bath. Samples were monitored at 260 nm using a Varian-Cary 400 Bio spectrophotometer fitted with a Peltier heating accessory. Heating was applied at a rate of 1° C./min in the 45 to 98° C. temperature range, with optical and temperature data sampling at 200 ms intervals. A separate experiment was carried out using buffer alone, and this baseline was subtracted from each DNA melting curve before data treatment. Optical data were imported into the Origin 5 program (MicroCal Inc., Northampton, Mass.) for analysis. DNA helix→coil transition temperatures (Tm) were determined at the midpoint of the normalized melting profiles using a published analytical procedure (Jones, G. B., et al., Anti-Cancer Drug Design, 5(3), 249-264 (1990)). Results are given in table 1 as the mean±standard deviation from at least three determinations. Ligand-induced alterations in DNA melting behaviour (ΔTm) are given by ΔTm=Tm(DNA+ligand)−Tm(DNA), where the Tm value determined for free CT-DNA is 67.82±0.06° C. (averaged from >90 runs). All PBD compounds were dissolved in HPLC-grade MeOH to give working solutions containing ≦0.6% v/v MeOH; Tm results were corrected for the effects of MeOH co-solvent by using a linear correction term.
The above method was also carried out on the compounds of example 2, with all compounds being incubated for up to 72 hours.

human c-myc oncogene = settings: read-out: IC50 to arrest PCR of the c-myc gene; cited from earlier work
HIV-1 LTR = settings: read-out: IC50 to arrest PCR of the HIV gene; cited from earlier work

Structure (SMILES)	Lowest concentration at which NF-Y binding inhibition was observed [1]	Concentration at which DNA binding is observed, ICB1 [2] [µM]	Concentration at which DNA binding is observed, ICB2 [2] [µM]	Lowest concentration at which NF-Y binding inhibition was observed [3] [µM]	Induced ΔTm after incubation 0 hours (calf thymus DNA (CT-DNA)) [°C]	Induced ΔTm after incubation 4 hours (calf thymus DNA (CT-DNA)) [°C]	Induced ΔTm after incubation 18 hours (calf thymus DNA (CT-DNA)) [°C]	Induced ΔTm after incubation 72 hours (calf thymus DNA (CT-DNA)) [°C]	IC50 (human c-myc oncogene) [µM]	IC50 (HIV-1 LTR) [µM]
COC(=O)c1cc(NC(=O)c2cc(NC(=O)c3csc(NC(=O)CCCOc4cc5c(cc4OC)C(=O)N4CCC[C@H]4C=N5)n3)cn2C)cn1C [Compound 69]	50 µM	5	5	10	16.4	17.4	18.2	18.5		
CCOC(=O)c1nc(NC(=O)c2nc(NC(=O)c3cc(NC(=O)CCCOc4cc5c(cc4OC)C(=O)N4CCC[C@H]4C=N5)cn3C)cn2C)cn1C [Compound 91]	did not inhibit NF-Y binding	5	5	50	16.8	17.6	18.7	18.8		
Cn1cc(NC(=O)c2cc(NC(=O)c3cc(NC=O)cn3C)cn2C)cc1C(=O)NCCC(=N)N [distamycin A]									25	50

— patent US8637664B2, “Alkyl 4- [4- (5-oxo-2,3,5, 11a-tetrahydo-5H-pyrrolo [2, 1-c] [1,4] benzodiazepine-8-yloxy)-butyrylamino]-1H-pyrrole-2-carboxylate derivatives and related compounds for the treatment of a proliferative disease” (Spirogen SARL, priority 2005, dated 2014)
